Test results taken from article PMC3354620 (Journal of the American Chemical Society, 2011).
“Also recorded” adds a separate entry of the source.

Experiments:
A/M2-V27A [1] = target: T1, A/M2-V27A (Influenza A virus, UniProt P0DOF5, V27A); assay type: cell-based, Influenza A virus (Udorn strain)
A/M2-V27A [2] = target: T1, A/M2-V27A; conditions: cited from earlier work
[3] = system: influenza A virus (A/Udorn/72) V27A mutant; assay type: cell-based

Structure (SMILES)	inhibition against V27A mutant (in words) (A/M2-V27A [1])	effect of V27A mutation on channel sensitivity to drug (A/M2-V27A [2])	inhibition of A/M2-V27A virus replication [3]
NC12CC3CC(CC(C3)C1)C2 [Amantadine]	completely unable to inhibit	entirely resistant	no inhibition; also recorded: no effect
CC(N)C12CC3CC(CC(C3)C1)C2 (stereo not shown) [rimantadine]	–	entirely resistant	–
